Common to all, as to assay: NCI-60 cell line screen, 48 h
Experiment [1] deals with SK-MEL-2.
The subject of experiment [2] is PC-3.
Experiment [3] has as its system HCT-15.
The test system of experiment [4] is Malme-3M.
The test system of experiment [5] is T47D.
The test system of experiment [6] is MDA-N.
The test system of experiment [7] is SW-620.
For experiment [8], the system named is SR.
The test system of experiment [9] is Hs-578T.
Experiment [10] relates to LOX IMVI.
Experiment [11] concerns HCT-116.
For experiment [12], the system named is UACC-257.
Experiment [13] relates to U-251.
Experiment [14] deals with SNB-75.
Experiment [15] relates to OVCAR-4.
Experiment [16] concerns ACHN.
For experiment [17], the system named is MCF7.
Experiment [18] deals with NCI-H226.
The subject of experiment [19] is OVCAR-3.

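Dose response: 5 concentrations. Exposure: 48 h. Format: 96-well plates. Endpoint: linear interpolation; highest concentration if not reached. GI50 marks 50% less growth.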 Calls of active or inactive are those of the source. No stated cut-off is given here; in the data, active = GI50 up to about 1.1 µM and inactive = higher. A value given as a limit tells only on which side of the number the result lay.

Take `Cc1ccc(S(=O)(=O)NC(=O)NS(=O)(=O)O)cc1`: the GI50 in [1] is > 100 µM (inactive); in experiment [2], > 100 µM (inactive); in [3], over 100 µM; in experiment [4], > 100 µM (inactive); in experiment [5] it was > 100 µM (inactive); in [6] it was > 100 µM (inactive). In addition, the GI50 in [7] is > 100 µM (inactive); in experiment [8] it was < 0.01 µM (active); in experiment [9], > 100 µM (inactive); in experiment [10] it was > 100 µM (inactive); in experiment [11], > 100 µM (inactive); in experiment [12], > 100 µM (inactive). Besides, the GI50 in experiment [13], in [14], in experiment [15], in [16] and in experiment [17] was > 100 µM (inactive) each time.
As for `c1cc(C[S+]2CCCC2)ccc1C[S+]1CCCC1`, the GI50 in experiment [2] was > 100 µM (inactive); in [3] it was over 100 µM; in [18], > 100 µM (inactive); in experiment [4], > 100 µM (inactive); in [5], > 100 µM (inactive); in experiment [6], > 100 µM (inactive). The GI50 in [7], in experiment [8], in experiment [9], in [10], in experiment [11] and in experiment [12] was > 100 µM (inactive) in each case. In addition, the GI50 in [13] was > 100 µM (inactive); in experiment [19], > 100 µM (inactive); in [14] it was 52.1 µM (inactive); in experiment [15], > 100 µM (inactive); in experiment [16] it was > 100 µM (inactive); in [17], > 100 µM (inactive).
On to `CCc1nc(N)nc(N)c1-c1ccc([N+](C)(C)C)cc1`, for which the GI50 was > 100 µM (inactive) in experiment [1]; > 100 µM (inactive) in [2]; over 100 µM in experiment [3]; > 100 µM (inactive) in experiment [18]; > 100 µM (inactive) in [5]; > 100 µM (inactive) in [6]. The GI50 in [7], in experiment [8], in experiment [9], in experiment [10], in [11] and in [12] was > 100 µM (inactive) each time. The GI50 in experiment [13], in experiment [19], in experiment [14], in [15], in experiment [16] and in experiment [17] was > 100 µM (inactive) in each case.
For `CN(C)CCNC(=O)c1cccc2c1Oc1cccc([N+](=O)[O-])c1O2`, the GI50 in experiment [1] was 23.5 µM (inactive); in experiment [2], 15.4 µM (inactive); in experiment [3], 33.8 µM; in experiment [18] it was 12.7 µM (inactive); in experiment [4] it was 14.1 µM (inactive); in experiment [5], 14.8 µM (inactive). The GI50 in [6] was 17.7 µM (inactive); in experiment [7], 19.3 µM (inactive); in experiment [8] it was 21.1 µM (inactive); in experiment [9], 18.4 µM (inactive); in experiment [11] it was 16.9 µM (inactive); in experiment [12] it was 18.5 µM (inactive). The GI50 in experiment [13] was 21 µM (inactive); in [19], 20.8 µM (inactive); in experiment [14], 13.9 µM (inactive); in experiment [16] it was 18.7 µM (inactive); in experiment [17], 19.1 µM (inactive).
Turning to `CC(NC(=O)C(C)C(=O)NCc1ccc(C(F)(F)F)cc1)C(N)=O` (stereo not drawn), the GI50 in experiment [1] is > 100 µM (inactive); in [2], > 100 µM (inactive); in experiment [3], over 100 µM; in experiment [18], > 100 µM (inactive); in experiment [4], 27.9 µM (inactive); in [5] it was > 100 µM (inactive). The GI50 in [6], in experiment [7], in [8], in [9], in experiment [11] and in experiment [12] was > 100 µM (inactive) each time. The GI50 in [13] was > 100 µM (inactive); in experiment [14] it was 48.1 µM (inactive); in experiment [16] it was > 100 µM (inactive); in experiment [17], > 100 µM (inactive).
On to `CC(=O)OC1COC(Nc2nc(N)n(C)c(=O)c2N=O)C(OC(C)=O)C1OC(C)=O` (stereo not drawn), for which the GI50 in experiment [1], in experiment [2], in experiment [18], in experiment [4], in [5] and in [6] was > 10 µM (inactive) in each case. For the same compound, the GI50 in [7], in experiment [8], in experiment [9], in experiment [10], in [11] and in experiment [12] was > 10 µM (inactive) throughout. Besides, the GI50 in [13], in [19], in [14], in experiment [15], in experiment [16] and in [17] was > 10 µM (inactive) each time.
On to `O=C(O)CCCc1ccc2c(c1)C(C(=O)O)CC2` (stereo not drawn), for which the GI50 in experiment [1] was > 100 µM (inactive); in [2], > 100 µM (inactive); in experiment [3], over 100 µM; in experiment [18], > 100 µM (inactive); in [4], > 100 µM (inactive); in experiment [5], > 100 µM (inactive). The GI50 in experiment [6], in experiment [7], in experiment [8], in [9], in experiment [10] and in [11] was > 100 µM (inactive) each time. Besides, the GI50 in [12], in experiment [13], in [14], in [15], in [16] and in experiment [17] was > 100 µM (inactive) each time.
For the compound `COC(=O)/C=C(\C(=O)OC)C1C(=O)Oc2c(C)c(=O)c3ccccc3n21` (stereo not drawn), the GI50 is > 100 µM (inactive) in experiment [1]; > 100 µM (inactive) in experiment [2]; over 100 µM in [3]; > 100 µM (inactive) in experiment [18]; > 100 µM (inactive) in experiment [4]; > 100 µM (inactive) in experiment [5]. The GI50 in experiment [6], in experiment [7], in experiment [8], in experiment [9], in [10] and in [11] was > 100 µM (inactive) throughout. Also, the GI50 in experiment [12], in [13], in [19], in experiment [14], in experiment [15] and in [17] was > 100 µM (inactive) each time.
Consider `O=C(Cc1ccccc1)Nn1c(-c2ccccc2)nc2ccccc2c1=O`, for which the GI50 in experiment [2], in [18], in [4], in experiment [5], in [6] and in [7] was > 100 µM (inactive) in each case. Besides, the GI50 in [8] was > 100 µM (inactive); in experiment [9], 42.3 µM (inactive); in experiment [10] it was > 100 µM (inactive); in experiment [11], > 100 µM (inactive); in experiment [12], > 100 µM (inactive); in experiment [13], > 100 µM (inactive). Further, the GI50 in experiment [19] is > 100 µM (inactive); in experiment [14], 8.83 µM (inactive); in [15] it was > 100 µM (inactive); in [16] it was > 100 µM (inactive); in experiment [17], > 100 µM (inactive).
As to `COc1cc2ccc(/C=C\[N+](=O)[O-])cc2cc1OC`, the GI50 in [1] is 2.86 µM (inactive); in experiment [2], 2.58 µM (inactive); in [3] it was 3.21 µM; in [18] it was 27.7 µM (inactive); in experiment [5], 2.92 µM (inactive); in [6], 2.18 µM (inactive). Moreover, the GI50 is 2.65 µM (inactive) in [7]; 1.98 µM (inactive) in [8]; 7.69 µM (inactive) in [9]; 1.79 µM (inactive) in experiment [10]; 2.34 µM (inactive) in experiment [11]; 3.11 µM (inactive) in experiment [12]. Further, the GI50 in experiment [13] is 2.65 µM (inactive); in experiment [19], 3.5 µM (inactive); in experiment [14], 2.48 µM (inactive); in experiment [15], 3.04 µM (inactive); in experiment [16] it was 1.81 µM (inactive); in [17] it was 2.24 µM (inactive).
As to `O=C1CCC2(CC1CC(Sc1ccccc1)Sc1ccccc1)OCCO2` (stereo not drawn), the GI50 is 24.9 µM (inactive) in experiment [1]; 25.2 µM (inactive) in experiment [2]; 37.1 µM in experiment [3]; 58.7 µM (inactive) in experiment [18]; 29.6 µM (inactive) in experiment [4]; 22.5 µM (inactive) in experiment [5]. Further, the GI50 was 42.4 µM (inactive) in experiment [6]; 49.4 µM (inactive) in experiment [7]; 26.4 µM (inactive) in [8]; 23.2 µM (inactive) in experiment [9]; 37.4 µM (inactive) in experiment [10]; 36.8 µM (inactive) in experiment [12]. Also, the GI50 is 41.9 µM (inactive) in [13]; 30.6 µM (inactive) in experiment [19]; 80.4 µM (inactive) in [14]; 56.1 µM (inactive) in [15]; 38.6 µM (inactive) in [16]; 32 µM (inactive) in experiment [17].

For the origin of these results see ChEMBL document CHEMBL1201862, “PubChem BioAssay data set” (2004).
